Drawing on BindingDB's records for doi:10.1021/jm060460o (University of Michigan, 2006), this text covers IC50 for five compounds.

This test is described as follows: Inhibition of growth of human PC3 cell overexpressing Bcl2.

SMILES strings stand for the structures. Some results are limits rather than exact numbers.

The compound `O=C(Nc1ccc(S(=O)(=O)c2ccccc2)cc1)c1cc(Cc2ccccc2)c(O)c(O)c1O` [N-(benzenesulfonyl-phenyl)-2,3,4-trihydroxy-5-benzyl-benzamide] displayed an IC50 of 4 µM. The figure for `O=C(Nc1ccccc1)c1cc(Cc2ccccc2)c(O)c(O)c1O` [N-phenyl-2,3,4-trihydroxy-5-benzyl-benzamide] is 5 µM; for `CC(C)c1cc(C(=O)Nc2ccccc2)c(O)c(O)c1O` [2,3,4-trihydroxy-5-isopropyl-N-phenyl-benzamide] it is 7 µM. The figure for `CC(C)c1ccccc1Cc1cc(C(=O)Nc2ccc(S(=O)(=O)c3ccccc3C(C)(C)C)cc2)c(O)c(O)c1O` [(N-[(2-tert-butylbenzenesulfonyl)phenyl]-2,3,4-trihydroxy-5-(2-isopropylbenzyl)benzamide] is 0.2 µM; for `COc1c(Cc2ccccc2C(C)C)cc(C(=O)Nc2ccc(S(=O)(=O)c3ccccc3C(C)(C)C)cc2)c(OC)c1OC` [N-[(2-Tert-butyl-benzenesulfonyl)-phenyl]-2,3,4-trimethoxyl-5-(2-isopropyl-benzyl)-benzamide] it is more than 100 µM.

Broadly, the IC50 is the point on the concentration scale where inhibition reaches its midpoint. Lower therefore signals greater potency.
